Results published in publication PMC8284453 (Antimicrobial Agents and Chemotherapy, 2021).
Like-named read-outs stand apart in the source and are kept apart here.

Columns and labels:
[1] = tested on: Enterobacterales expressing class A ESBLs; assay: organism not typed; format: cell-based, E. coli, K. pneumoniae; details: 25 isolates; BLI fixed at 4 μg/ml, AMC 2:1
[2] = tested on: K. pneumoniae ATCC BAA-1705 (KPC-2); assay: Broth microdilution MIC; format: cell-based; details: modal value, 5 independent determinations
E. coli ESBL4 (CTX-M-15) [3] = assay: Broth microdilution MIC; format: cell-based; details: modal value, 5 independent determinations
[4] = tested on: isogenic strains of E. coli expressing Ambler class A, B, C, and D enzymes; assay: microbe, parasite or virus in culture; format: cell-based, Escherichia coli
[5] = tested on: Enterobacterales expressing class D oxacillinases (OXA-48/48-like); assay: organism not typed; format: cell-based, E. coli, K. pneumoniae; details: for MIC50 / MIC90: 25 isolates, BLI fixed at 4 μg/ml, AMC 2:1
[6] = tested on: E. cloacae ECL01 (TEM-72, ACT-1, P99AmpC); assay: Broth microdilution MIC; format: cell-based; details: modal value, 5 independent determinations
[7] = tested on: Enterobacterales expressing class A carbapenemases (KPC); assay: organism not typed; format: cell-based, K. pneumoniae, E. coli, E. cloacae, Klebsiella oxytoca
E. coli ESBL4 (CTX-M-15) [8] = assay: 24-h time-kill assay; format: cell-based
Procedure: (§1) In vitro antibacterial time-kill assay. […] Time-kill assays were performed in 14 ml glass tubes or deep-well storage plates with a bacterial inoculum in CAMHB of 5 × 10^5 CFU/ml. The tubes/plates were incubated at 37°C with shaking at 200 rpm, and aliquots were drawn at six time points (0, 2, 4, 6, 8, and 24 h) to conduct 0.5 log10 dilutions in CAMHB in 96-well plates that were incubated overnight at 37°C and used to ascertain viable bacterial counts. The lowest quantifiable amount by this method is 2 log10 CFU/ml.

[9] = tested on: E. cloacae ECL01 (TEM-72, ACT-1, P99AmpC); assay: 24-h time-kill assay; format: cell-based; details: lowest concentration with ≥3-log10 CFU/ml reduction at 24 h
Procedure: as §1

[10] = tested on: K. pneumoniae 752286 (OXA-48); assay: 24-h time-kill assay; format: cell-based; details: lowest concentration with ≥3-log10 CFU/ml reduction at 24 h
Procedure: as §1

[11] = tested on: K. pneumoniae ATCC BAA-1705 (KPC-2); assay: 24-h time-kill assay; format: cell-based; details: lowest concentration with ≥3-log10 CFU/ml reduction at 24 h
Procedure: as §1

[12] = tested on: K. pneumoniae 752286 (OXA-48); assay: Broth microdilution MIC; format: cell-based; details: modal value, 5 independent determinations
[13] = tested on: Enterobacterales expressing class C cephalosporinases
[14] = 25 isolates, BLI fixed at 4 μg/ml, AMC 2:1

C[C@@H](O)[C@H]1C(=O)N2C(C(=O)O)=C(S[C@H]3CC[S@@+]([O-])C3)S[C@H]12 [Sulopenem]
8: Fold increase in MIC compared to vector control ([4]; E. coli expressing ACT-17 (class C), inhibitor fixed at 4 μg/ml) | Fold increase in MIC compared to vector control ([4]; E. coli expressing CMY-2 (class C), inhibitor fixed at 4 μg/ml) | Fold increase in MIC compared to vector control ([4]; E. coli expressing OXA-163 (class D), inhibitor fixed at 4 μg/ml) | Fold increase in MIC compared to vector control ([4]; E. coli expressing PER-1 (class A), inhibitor fixed at 4 μg/ml) | Fold increase in MIC compared to vector control ([4]; E. coli expressing SHV-5 (class A), inhibitor fixed at 4 μg/ml)
0.5 µg/mL: MIC90 [1]
bactericidal activity: outcome of 24-h time-kill assay (E. coli ESBL4 (CTX-M-15) [8]; Fig. 3a, CTB 2 μg/ml with BLI at 4 μg/ml, CTB alone 8 μg/ml, amoxicillin 8/clavulanic acid 4 μg/ml, penems 2 μg/ml)
>32 µg/mL: MBC [10]
4 µg/mL: MIC ([5]; E. coli 664523 (OXA-48)) | MIC ([5]; E. coli SI-422 (OXA-48)) | MIC ([5]; E. coli VER (OXA-48)) | MIC ([5]; K. pneumoniae 515746 (OXA-48), second line) | MIC ([5]; K. pneumoniae BAH (OXA-204)) | MIC ([5]; K. pneumoniae KIRK (OXA-162)) | MIC ([7]; K. oxytoca 847539 (KPC)) | MIC ([13]; S. marcescens 218068 (AmpC, SHV-7, TEM-1))
1,024: Fold increase in MIC compared to vector control ([4]; E. coli expressing NDM-1 (class B), inhibitor fixed at 4 μg/ml) | Fold increase in MIC compared to vector control ([4]; E. coli expressing OXA-181 (class D), inhibitor fixed at 4 μg/ml)
16 to 32 µg/mL: MIC90 ([5]; listed as sulopenem)
1 µg/mL: MIC ([5]; K. pneumoniae 6299 (OXA-163)) | MIC [6] | MBC [9] | MIC ([13]; P. mirabilis SI-F014 (AmpC, TEM-72)) | MIC ([13]; S. marcescens 156212 (AmpC, SHV-12, TEM-1))
0.06 µg/mL: MIC ([13]; C. freundii 134390 (AmpC, TEM-1)) | MIC ([13]; E. aerogenes 110099 (AmpC, SHV-12)) | MIC ([13]; E. coli CH1 (AmpC, CTX-M-15, SHV-1, SHV-5, TEM-1)) | MIC ([13]; E. coli J53 (AmpC, SHV-5, TEM-1)) | MIC ([13]; K. pneumoniae 129032 (MOX-2, SHV-12, TEM-1)) | MIC ([13]; K. pneumoniae 178279 (AmpC, SHV-12, TEM-1)) | MIC ([13]; K. pneumoniae 217917 (CMY-2, TEM-1)) | MIC ([13]; K. pneumoniae 398845 (CMY-2, SHV-12, TEM-1))
0.03 µg/mL: MIC ([13]; E. coli 128 (AmpC, SHV-12, TEM-1, Toho-2)) | MIC ([13]; E. coli 3102 (AmpC, CTX-M-15, TEM-1)) | MIC ([13]; E. coli EC469 (AmpC, SHV-12, TEM-1)) | MIC ([13]; K. pneumoniae 212027 (AmpC, FOX-5, TEM-1)) | MIC ([13]; K. pneumoniae SI-F100 (CMY-2, SHV-5, TEM-1))
64: Fold increase in MIC compared to vector control ([4]; E. coli expressing OXA-23 (class D), inhibitor fixed at 4 μg/ml)
8 µg/mL: MIC50 [5] | MIC ([5]; E. coli 664507 (OXA-48)) | MIC ([5]; E. coli 664520 (OXA-48)) | MIC ([5]; E. coli 664524 (OXA-48)) | MIC ([5]; E. coli 664526 (OXA-48)) | MIC ([5]; E. coli 664528 (OXA-48)) | MIC ([5]; K. pneumoniae 664438 (OXA-48)) | MIC ([5]; K. pneumoniae 664439 (OXA-48)) | MIC ([5]; K. pneumoniae 664518 (OXA-48)) | MIC ([5]; K. pneumoniae 722870 (OXA-48)) | MIC ([7]; K. pneumoniae 847379 (KPC)) | MIC ([7]; K. pneumoniae 897067 (KPC)) | MIC ([13]; S. marcescens 134434 (AmpC, SHV-12, TEM-1))
0.03 to 1 µg/mL: MIC range [1]
2 µg/mL: MIC ([5]; K. pneumoniae 515746 (OXA-48), first line) | MIC ([5]; K. pneumoniae DOV (OXA-48)) | MIC90 [13, 14] | MIC ([13]; S. marcescens 132253 (AmpC, CTX-M-3, OXA-1, SHV-12, TEM-1)) | MIC ([13]; S. marcescens 142397 (AmpC, SHV-7, TEM-1))
4: Fold increase in MIC compared to vector control ([4]; E. coli expressing CTX-M-15 (class A), inhibitor fixed at 4 μg/ml) | Fold increase in MIC compared to vector control ([4]; E. coli expressing SHV-12 (class A), inhibitor fixed at 4 μg/ml) | Fold increase in MIC compared to vector control ([4]; E. coli expressing VEB-9 (class A), inhibitor fixed at 4 μg/ml)
≥ 64 µg/mL: MIC ([5]; K. pneumoniae 664509 (OXA-48)) | MIC90 ([7]; 25 isolates, BLI fixed at 4 μg/ml, AMC 2:1, listed as sulopenem) | MIC ([7]; E. cloacae 847426 (KPC)) | MIC ([7]; E. cloacae 847429 (KPC)) | MIC ([7]; E. cloacae OIMGH49 (p99 AmpC, ACT-2, KPC-2, TEM-1)) | MIC ([7]; E. coli 786978 (KPC)) | MIC ([7]; K. oxytoca 847537 (KPC)) | MIC ([7]; K. pneumoniae 155140 (AmpC, KPC-2, SHV-12, TEM-1)) | MIC ([7]; K. pneumoniae 845661 (KPC)) | MIC ([7]; K. pneumoniae 845662 (KPC)) | MIC ([7]; K. pneumoniae 845665 (KPC)) | MIC ([7]; K. pneumoniae 845667 (KPC)) | MIC ([7]; K. pneumoniae 847384 (KPC)) | MIC ([7]; K. pneumoniae 848832 (KPC))
2,048: Fold increase in MIC compared to vector control ([4]; E. coli expressing KPC-2 (class A), inhibitor fixed at 4 μg/ml) | Fold increase in MIC compared to vector control ([4]; E. coli expressing KPC-3 (class A), inhibitor fixed at 4 μg/ml)
0.12 µg/mL: MIC50 [1] | MIC (E. coli ESBL4 (CTX-M-15) [3]) | MBC (E. coli ESBL4 (CTX-M-15) [8]; lowest concentration with ≥3-log10 CFU/ml reduction at 24 h) | MIC ([13]; E. aerogenes 111707 (AmpC, TEM-1)) | MIC ([13]; E. coli SI-PO26 (AmpC, CMY-2, TEM-1)) | MIC ([13]; K. pneumoniae 301313 (AmpC, SHV-12, TEM-1))
2: Fold increase in MIC compared to vector control [4]
16 µg/mL: MIC90 [5] | MIC ([5]; E. coli 664516 (OXA-48)) | MIC ([5]; E. coli 664522 (OXA-48)) | MIC ([5]; E. coli 664525 (OXA-48)) | MIC ([5]; E. coli 787112 (OXA-48)) | MIC ([5]; K. pneumoniae SI-C17 (OXA-48)) | MIC ([7]; K. pneumoniae 845670 (KPC)) | MIC ([7]; K. pneumoniae 845904 (KPC)) | MIC ([7]; K. pneumoniae UMM (KPC-2, SHV-5, TEM-1)) | MIC [12]
512: Fold increase in MIC compared to vector control ([4]; E. coli expressing OXA-48 (class D), inhibitor fixed at 4 μg/ml)
4 to 8 µg/mL: MIC50 ([5]; listed as sulopenem)
16: Fold increase in MIC compared to vector control ([4]; E. coli expressing CMY-42 (class C), inhibitor fixed at 4 μg/ml) | Fold increase in MIC compared to vector control ([4]; E. coli expressing KPC-3 D179Y (class A), inhibitor fixed at 4 μg/ml) | Fold increase in MIC compared to vector control ([4]; E. coli expressing P99/AmpC (class C), inhibitor fixed at 4 μg/ml)
0.25 µg/mL: MIC ([13]; E. aerogenes 111902 (AmpC, TEM-1)) | MIC ([13]; E. coli SI-P026TC (CMY-2, TEM-1)) | MIC ([13]; S. marcescens 192478 (AmpC, SHV-12, TEM-1))
32 µg/mL: MIC [2] | MIC ([5]; K. pneumoniae DEL (OXA-232)) | MIC50 [7, 14] | MIC ([7]; K. pneumoniae 847204 (KPC)) | MIC ([7]; K. pneumoniae 847375 (KPC)) | MIC ([7]; K. pneumoniae 847378 (KPC)) | MIC ([7]; K. pneumoniae 847383 (KPC)) | MIC ([7]; K. pneumoniae 847387 (KPC)) | MIC ([7]; K. pneumoniae 847747 (KPC)) | MIC ([7]; K. pneumoniae 848844 (KPC)) | MBC [11]
256: Fold increase in MIC compared to vector control ([4]; E. coli expressing GES-5 (class A), inhibitor fixed at 4 μg/ml)
